Measured values published in patent publication US20150272970A1, “TARGETING CHEMOTHERAPY AGENT RESISTANCE IN CANCER” (priority 2012, published 2015).
“Also recorded” adds a separate entry of the source.

Key:
[1] = tested on: Notch and Hedgehog pathway target genes; assay: Quantitative RT-PCR of Notch and Hedgehog pathway target genes in cells; type: cell-based, human; conditions: 1 μM, 72 hours, DU145-pCK19-GFP and 22Rv1-pCK19-GFP cells
Method: Total RNA was isolated using the RNeasy Mini kit according to the manufacturer's instructions (Qiagen). Complementary DNA was synthesized from equivalent concentrations of total RNA using the SuperScript III First-Strand Synthesis SuperMix Kit (Invitrogen) according to the manufacturer's instructions. Coding sequences for genes of interest and β-Actin as an internal control were amplified from 500 ng of complementary DNA using the QuantiTect SYBR Green PCR Kit (Qiagen).
Amplification was carried out using a Stratagene mx3005p (Agilent Technologies). Cycle threshold (Ct) values were determined and normalized to the housekeeping gene (β-actin) for each experiment. Fold changes for experimental groups relative to respective controls were calculated using MX Pro software (Agilent Technologies). Quantitative RT-PCR was performed in DU145-pCK19-GFP and 22Rv1-pCK19-GFP cells as well as in cells obtained from mice bearing DU145 and 22Rv1 tumor xenografts treated for 21 days with Docetaxel, and Hedgehog and Notch inhibitors, alone or in combination. Quantitative RT-PCR was performed in tumor xenografts removed 4 hours after the last drug dose was administered.

Bcl-2 = assay: Immunoblot of Bcl-2 expression; type: cell-based, human; conditions: 1 μM, 72 hours, CK19/GFP-negative cells
Method: Whole cell extracts were prepared in sample buffer and analyzed by immunoblotting. […] Protein expression was quantified by comparing band expression using Quantity One software (Bio-Rad).

p-AKT (Ser473) = assay: Immunoblot of AKT phosphorylation; type: cell-based, human; conditions: 1 μM, 72 hours, CK19/GFP-negative cells
Method: (§1) Whole cell extracts were prepared in sample buffer and analyzed by immunoblotting. Primary antibodies against poly (ADP-ribose) polymerase (PARP) (BD Pharmingen), cleaved caspase-3 (Cell Signaling), cytokeratin 19 (CK19) (Abcam), cytokeratin 18 (CK18) (Abcam), androgen receptor (AR) (Sigma-Aldrich), prostate specific membrane antigen (PSMA) (Abcam), prostate specific antigen (PSA) (Epitomics), cytokeratin 5 (CK5) (Covance), cytokeratin 14 (CK14) (Biogenex), p63 (Santa Cruz), CD44 (Neomarkers), activated Notch2 (Abcam), Hes1 (Abcam), Patched (Abcam), Gli1 (Santa Cruz), Gli2 (Abcam), pan-HLA class I (Abcam), and AKT (Cell Signaling), phospho-AKT Ser 473 (Cell Signaling), Bcl-2 (Cell Signaling), ABCB1/P-Glycoprotein (Calbiochem), Green fluorescent protein (Santa Cruz), and β-Actin (Sigma-Aldrich) were used in immunoblot assays using standard procedures. Protein expression was quantified by comparing band expression using Quantity One software (Bio-Rad).

[2] = tested on: DU145-pCK19-GFP and 22Rv1-pCK19-GFP sorted cells; assay: Colony formation assay of GFP-sorted cells; type: cell-based, human; conditions: 72 hours; for colony formation of CK19/GFP-negative cells / colony formation of CK19/GFP-positive cells: Mitoxantrone 125/500 nM, Cisplatin 5/2.5 μM, Vinorelbine 500/750 nM (DU145/22Rv1); for colony formation of CK19/GFP-negative cells with PI3K/AKT and Bcl-2 inhibition: LY294002 50 μM, ABT-737 10 μM
Method: (§2) Cells were exposed to vehicle solution (Control), LY294002 (50 μM), and ABT-737 (10 μM) for 72 hours, alone or in combination.

DU145-pCK19-GFP cells = assay: Flow cytometry of viable CK19/GFP populations after Docetaxel; type: cell-based, human; conditions: 10 nM Docetaxel for 72 h
Method: (§3) Flow cytometry analysis of subpopulations of prostate cancer cells were carried out following standard procedures. Intracellular CK19 and CK18 expression analysis was performed in single-cell suspensions fixed with 70% ethanol, whereas the expression of cell surface HLA class I was determined in fresh cell samples (without fixation). Primary antibodies against CK19 (Abcam), CK18 (Abcam), HLA class I (Abcam), HLA class I conjugated to phycoerythrin (Abcam), and GFP (Abcam) were used. […] Samples were acquired with a FACscan Flow Cytometer (BD Biosciences) and analyzed with CellQuest Pro software (BD Biosciences). A minimum of 10,000 cells were measured per sample.

[3] = tested on: DU145-pCK19-GFP and 22Rv1-pCK19-GFP cells; assay: Live cell imaging (time-lapse) in presence of Docetaxel; type: cell-based, human; conditions: in the presence of Docetaxel
Method: Time-lapse videomicroscopy was used to assess Docetaxel sensitivity of DU145-pCK19-GFP and 22Rv1-pCK19-GFP cells. Cells growing in 6-well plates at low confluence were placed in the stage inside an incubator chamber at 37° C., 50% humidity, and in an atmosphere of 5% CO2. Unattended time-lapse movies of randomly chosen GFP+ and GFP− DU145 and 22Rv1 cells were performed with a Nikon Eclipse Ti inverted microscope. NIS Elements AR (Nikon) software was used to collect and process data. Imaging was performed using a 10× objective, and images were captured using 200-ms exposure times for GFP and 20-ms exposure times for bright field every 30 min.

[4] = tested on: DU145 and 22Rv1 xenografts; assay: Percentage of CK-negative cells in tumor xenografts; type: in vivo, NOD/SCID mice; conditions: treated for 4 weeks
Method: Immunofluorescence analyses were conducted on prostate cancer cell lines and formalin fixed paraffin-embedded tissue sections from normal human prostate, human cancers, and tumor xenografts. Primary antibodies included a combination of cytokeratin 19 and 18 (Abcam), green fluorescence protein (Abcam), cytokeratin 5 (Covance), cytokeratin 14 (Biogenex), p63 (Santa Cruz), pan-HLA class I (Abcam), Ki67 (Abcam) and the following transcription factors: activated Notch2 (Abcam), Gli1 (Santa Cruz), Gli2 (Abcam) and androgen receptor (DAKO). […] Prostate cancer cells (10,000) were plated in 35 mm culture dishes and 24 hours later stained by standard immunofluorescence procedures. Tissue sections (5 μm) were deparaffinized and submitted to standard peroxidase based immunohistochemistry and immunofluorescence procedures. Quantification of the expression of cytokeratins, HLA class I antigens, transcription factors, and androgen receptor was performed by evaluating tumor cells. Percentage of positive and negative cells was determined by counting the number of tumor cells in 10 contiguous high power fields in three different areas of the tumor, and referred to the total number of counted cancer cells.

22Rv1-pCK19-GFP cells = assay: Flow cytometry of viable CK19/GFP populations after Docetaxel; type: cell-based, human; conditions: 50 nM Docetaxel
Method: as §3

[5] = tested on: DU145-pCK19-GFP and 22Rv1-pCK19-GFP cells; assay: Immunoblots of Docetaxel-resistance markers in unsorted cells; type: cell-based, human; conditions: Docetaxel 72 hours (10 nM DU145, 50 nM 22Rv1)
Method: as §1

CK19/GFP-negative cells = assay: Apoptotic response by Caspase-3 and PARP cleavage immunoblot; type: cell-based, human; conditions: LY294002 50 μM, ABT-737 10 μM, 72 hours
Method: as §1, §2

CS(=O)(=O)c1ccc(C(=O)Nc2ccc(Cl)c(-c3ccccn3)c2)c(Cl)c1 [GDC-0449, Vismodegib]
targeting of respective pathway (mRNA of pathway target genes) [1]: targeting their respective pathways | Bcl-2 expression level (Bcl-2): significantly reduced; also recorded: reduces

C[C@H](NC(=O)Cc1cc(F)cc(F)c1)C(=O)N[C@H]1N=C(c2ccccc2)c2ccccc2N(C)C1=O [Compound E]
targeting of respective pathway (mRNA of pathway target genes) [1]: targeting their respective pathways | p-AKT (Ser473) level (p-AKT (Ser473); listed as CE): significantly reduced; also recorded: specifically decreases

N.N.[Cl][Pt][Cl] [Cisplatin]
colony formation of CK19/GFP-negative cells [2]: formed colonies | colony formation of CK19/GFP-positive cells [2]: failed to do so

C[C@H](NC(=O)Cc1cc(F)cc(F)c1)C(=O)NC1C(=O)N(C)c2ccccc2-c2ccccc21 (stereo partly drawn) [DBZ, (2S)-2-[2-(3,5-difluorophenyl)-acetylamino]-N-(5-methyl-6-oxo-6,7-dihydro-5H-dibenzo[b,-d]azepin-7-yl)-propionamide]
targeting of respective pathway (mRNA of pathway target genes) [1]: targeting their respective pathways | p-AKT (Ser473) level (p-AKT (Ser473)): significantly reduced; also recorded: decreases

CC(=O)O[C@@]12CO[C@@H]1C[C@H](O)[C@@]1(C)C(=O)[C@H](O)C3=C(C)[C@@H](OC(=O)[C@H](O)[C@@H](NC(=O)OC(C)(C)C)c4ccccc4)C[C@@](O)([C@@H](OC(=O)c4ccccc4)[C@H]21)C3(C)C [Docetaxel]
colony formation after exposure to Docetaxel ([2]; Docetaxel 10 nM (DU145) and 50 nM (22Rv1)): only CK19/GFP-negative cells formed colonies | viable CK19/GFP-negative population (DU145-pCK19-GFP cells; 4.4±4.3% before treatment): 73.1±10.2% | viable CK19/GFP-positive population (DU145-pCK19-GFP cells; 87.5±10.4% before treatment): 28.3±10.6% | behavior of CK19/GFP-negative cells under therapy [3]: able to divide and exit mitosis | behavior of CK19/GFP-positive cells under therapy [3]: died after mitotic arrest | CK-negative cells in xenografts [4]: enriched for CK-negative cells | viable 22Rv1-pCK19-GFP-negative cells (22Rv1-pCK19-GFP cells; 8.5±3.5% before treatment): 78.6±4.1% | viable CK19/GFP-positive cells (22Rv1-pCK19-GFP cells; 85.0±2.0% before treatment): 19.3±3.4% | differentiation markers and developmental signaling pathways [5]: expected reduction in differentiation markers and increase in developmental signaling pathways

O=C1c2c(O)ccc(O)c2C(=O)c2c(NCCNCCO)ccc(NCCNCCO)c21 [Mitoxantrone]
colony formation of CK19/GFP-negative cells [2]: formed colonies | colony formation of CK19/GFP-positive cells [2]: failed to do so

CN(C)CC[C@H](CSc1ccccc1)Nc1ccc(S(=O)(=O)NC(=O)c2ccc(N3CCN(Cc4ccccc4-c4ccc(Cl)cc4)CC3)cc2)cc1[N+](=O)[O-] [ABT-737]
colony formation of CK19/GFP-negative cells with PI3K/AKT and Bcl-2 inhibition [2]: not individual | apoptosis (PARP and Caspase-3 cleavage) with PI3K/AKT and Bcl-2 inhibition (CK19/GFP-negative cells): not individual

Cl.O=c1cc(N2CCOCC2)oc2c(-c3ccccc3)cccc12 [LY294002, 2-(4-Morpholinyl)-8-phenyl-1(4H)-benzopyran-4-one hydrochloride]
colony formation of CK19/GFP-negative cells with PI3K/AKT and Bcl-2 inhibition [2]: not individual | apoptosis (PARP and Caspase-3 cleavage) with PI3K/AKT and Bcl-2 inhibition (CK19/GFP-negative cells): not individual

CCC1=C[C@@H]2CN(C1)Cc1c([nH]c3ccccc13)[C@@](C(=O)OC)(c1cc3c(cc1OC)N(C)[C@H]1[C@@](O)(C(=O)OC)[C@H](OC(C)=O)[C@]4(CC)C=CCN5CC[C@]31[C@@H]54)C2 [Vinorelbine]
colony formation of CK19/GFP-negative cells [2]: formed colonies | colony formation of CK19/GFP-positive cells [2]: failed to do so

CC1=C2C[C@H]3[C@@H](CC=C4C[C@@H](O)CC[C@@]43C)[C@@H]2CC[C@]12O[C@@H]1C[C@H](C)CN[C@H]1[C@H]2C [Cyclopamine]
targeting of respective pathway (mRNA of pathway target genes) [1]: targeting their respective pathways | Bcl-2 expression level (Bcl-2): significantly reduced; also recorded: reduces
